For one assay, the system named is IL-12 gene. Nature of the assay: IL-12 gene expression in human mononuclear cells (RT-PCR). The format is cell-based. As to conditions: 40 μg/ml, 18 h; mRNA normalized against β-actin; FIG. 3A. Here is the method: (§1) For this assay, human mononuclear cells were isolated by a Ficoll-Hypaque gradient from a leukocyte concentrate or “Buffy Coat” of a donor. Up to 5×10^6 were seeded in 24-well plates in RPMI 1640 medium supplemented with 10% calf fetal serum. Each peptide was further added at 40 μg/ml in a 0.1 ml volume of RPMI medium and cells were cultured for 18 h at 37° C. and 5% of CO2. Total RNA was extracted by using the TriReagent method. Afterwards, the expressions of IFN-α, IFN-γ and IL-12 genes were determined by the reverse transcription reaction and PCR amplification (RT-PCR kit, Perkin Elmer). Results are shown as relative amounts of messenger RNA normalized against expression levels of the β-actin housekeeping gene.

In the next assay the test system is IFN-γ gene. Nature of the assay: IFN-γ gene expression in human mononuclear cells (RT-PCR). It is filed as cell-based. The settings on record: 40 μg/ml, 18 h; mRNA normalized against β-actin; FIG. 3A. How it is done:
as §1

A further assay has as its system IFN-α gene. Nature of the assay: IFN-α gene expression in human mononuclear cells (RT-PCR). It is filed as cell-based. As to conditions: 40 μg/ml, 18 h; for expression of the IFN-α gene compared to the LALF32-51 peptide: FIG. 3B; for expression of the IFN-α gene: mRNA normalized against β-actin, FIG. 3A. Here is the method:
as §1

The test system of the next assay is TC-1 tumor cells. In words: anti-tumoral effect in the TC-1 tumor model. It is filed as in vivo. The settings on record: 4 mg per kg s.c.; for survival of mice / tumor progression (tumor mass): at 100 mm^3 tumor volume and after 10 days, FIG. 4; for survival of animals compared to the LALF32-51 peptide: Log Rank, *p<0.05. How it is done: Eight-to-ten weeks-old C57BI/6 female mice were used for this assay (n=10 animals per experimental group). For tumor graft, TC-1 tumor cells derived from C57BI/6 malignant epithelial lung cells were used, being resuspended in phosphate-buffered saline (PBS). An amount of 50,000 cells in a 200 μl volume was inoculated to mice by subcutaneous route in the right hind limb. The first peptide administration was carried out by subcutaneous route in the right flank once tumor reached a 100 mm^3 volume, and the second was carried out after 10 days. In this assay, a 4 mg per kg of weight dose was evaluated (80 μg/mice). Animal survival and tumor mass were the parameters evaluated to measure the anti-tumoral effect peptides of interest, as shown in FIGS. 4A and 4B. […] The Log Rank method was used as statistical analysis for detecting significant differences between groups.

Assay [1] can be described thus: competition ELISA for heparin-binding capacity. As to conditions: for heparin binding: peptides at 2 μM with 250 units of heparin, FIG. 2. How it is done: This assay consists on a competition ELISA system, similar to the previously described one. The biotinylated LALF32-51 peptide was adsorbed to polystyrene plates (Costar, USA) in 1×PBS and incubated overnight at 4° C. Analogous peptides L-2, L-8, L-12 and L-20 were mixed at 2 μM with 250 units of heparin (Sodic Heparin, 5,000 U/ml, Liorad) in 1×PBS plus 0.1% of bovine serum albumin (BSA). Afterwards, mixes were added to an ELISA plate containing 0.02 μM of the biotinylated LALF32-51 peptide adsorbed to the solid surface. After a 1 h-incubation at room temperature, plates were washed five times with washing solution and the biotinylated LALF32-51 peptide fixed to the solid surface was detected by incubating for 45 min at 37° C. with streptavidin-peroxidase conjugate at a 1:2,000. Afterwards, plates were washed five times with washing solution and the substrate solution was added. After an additional incubation for 15 min, the reactions were stopped with 2 M sulphuric acid solution. The lack of heparin binding to the analogous peptides correlates with the […] optical density, because they are unable to displace the heparin bound to the biotinylated LALF32-51 peptide adsorb to the solid surface. The unlabeled LALF32-51 peptide at a 100× molar excess was used as control of the assay.
A general note: ELISA stands for enzyme-linked immunosorbent assay.

Assay [2] can be described thus: competition ELISA for LPS-binding capacity. As to conditions: competition with biotinylated LALF32-51 at 0.2 μM; analogous peptides 10 μM to 0.01 μM; FIG. 1A. Also on record: species or system E. coli. Here is the method:
This assay consists on a competition ELISA system (Hardy E., et al (1994) Enhanced ELISA sensitivity using TCA for efficient coating of biologically active LPS or Lipid A to the solid phase. J. Immunol. Meth. Vol. 176:111-116). Polystyrene plates (Costar, USA) were coated with LPS from E. coli 0111:B4 (1 μg/ml) with 0.2% trichloroacetic acid (TCA). Plates were incubated overnight at 37° C. and further washed ten times with 1× phosphate-buffered saline (1×PBS) plus 0.1% tween-20 (washing solution). The binding of analogous peptides to the LPS fixed to the solid surface was evaluated by a competition ELISA with the biotinylated LALF32-51 peptide at 0.2 μM, obtaining a 90% of maximum LPS binding. To estimate the inhibition curves, different concentrations of the analogous peptides were used, from 10 μM to 0.01 μM and the curve of the LALF32-51 peptide as experimental control. The biotinylated LALF32-51 was incubated in the presence of the analogous peptides for 2 h at 37° C. and plates were washed 5 times after that time with washing solution. The biotinylated LALF32-51 bound to LPS was detected by incubating for 45 min at 37° C. with a streptavidin-peroxidase conjugate at a 1:2,000 dilution. Plates were washed 5 times with washing solution and the substrate solution was added (0.05 M citrate-phosphate buffer, pH 5.5, 1 tablet of 3,3′,5,5′-tetramethylbenzidine and 0.025% hydrogen peroxide). After 15 min incubation, the reaction was stopped by adding 2 M sulphuric acid. The absorbance was quantified at 450 nm in a plate reader (Sensident Scan). There is a correlation between optical density values and the LPS-binding capacity of analogous peptides. Analogous peptides with higher LPS-binding capacity show inhibition curves of lower O.D. compared to the inhibition curve of the LALF32-51 peptide.
Analogous peptides with lower LPS-binding capacity present inhibition curves with […], compared to the inhibition curve of the LALF32-51 peptide.
FIG. 1B represents the inhibition percentages of analogous peptides, at a fixed […] concentration, according to their capacity to displace the binding of the biotinylated LALF32-51 (0.2 μM) to LPS adsorbed to the solid surface. % de inhibición={1−(([O.D.]sample−[O.D.]min)/([O.D.]max−[O.D.]min))}×100 [O.D.] sample: Optical density value in the presence of a fixed concentration of analogous peptides; [O.D.] min: ELISA background; [O.D.] max: Optical density value without analogous peptides.

As to “HYRIKPTFRRLAWKYKGKFW [Peptide L-12, alanine-substituted analogue of LALF 32-51]”, the “expression of the IL-12 gene” value in the assay on IL-12 gene is on record as “capable of inducing the expression”. In the assay on IFN-γ gene, the “expression of the IFN-γ gene” value is reported as “capable of inducing the expression”. Moreover, in the assay on IFN-α gene, the “expression of the IFN-α gene compared to the LALF32-51 peptide” value was “more effective” and the “expression of the IFN-α gene” value was “capable of inducing the expression”. Besides, in the assay on TC-1 tumor cells, the survival of mice result was “prolonging survival of mice”, the “tumor progression (tumor mass)” value is “effective for inhibiting tumor progression” and the “survival of animals compared to the LALF32-51 peptide” value was “significantly increase the survival of animals”. Also, in assay [1], the heparin binding entry is recorded as “unable to bind heparin”. Also, in assay [2], the LPS-binding capacity result is reported as “lose the capacity to bind LPS”.

Consider “HYRIKPTARRLKWKYKGKFW [Peptide L-8, alanine-substituted analogue of LALF 32-51]”, for which the “expression of the IL-12 gene” value with IL-12 gene is listed as “capable of inducing the expression”. In the assay on IFN-γ gene, the “expression of the IFN-γ gene” value is recorded as “capable of inducing the expression”. Besides, in the assay with IFN-α gene, the “expression of the IFN-α gene compared to the LALF32-51 peptide” value was “more effective” and the “expression of the IFN-α gene” value was “capable of inducing the expression”. Further, in the assay on TC-1 tumor cells, the survival of mice result was “prolonging survival of mice”, the “tumor progression (tumor mass)” value is listed as “effective for inhibiting tumor progression” and the “survival of animals compared to the LALF32-51 peptide” value is “significantly increase the survival of animals”. In addition, the heparin binding result in assay [1] is on record as “unable to bind heparin”. Further, in assay [2], the LPS-binding capacity result was “lose the capacity to bind LPS”.

Regarding “HYAIKPTFRRLKWKYKGKFW [Peptide L-3, alanine-substituted analogue of LALF 32-51]”, in assay [2], the LPS-binding capacity result was “higher LPS binding capacity”.

“HYRIKPTFRRLKWKYKGKFA [Peptide L-20, alanine-substituted analogue of LALF 32-51]”: in the assay on IL-12 gene, the “expression of the IL-12 gene” value is listed as “capable of inducing the expression”. In the assay on IFN-γ gene, the “expression of the IFN-γ gene” value was “capable of inducing the expression”. Besides, the “expression of the IFN-α gene” value with IFN-α gene is listed as “capable of inducing the expression”. Further, in the assay with TC-1 tumor cells, the survival of mice entry was “prolonging survival of mice”, the “tumor progression (tumor mass)” value was “effective for inhibiting tumor progression” and the “survival of animals compared to the LALF32-51 peptide” value was “significantly increase the survival of animals”. Further, the heparin binding result in assay [1] is listed as “unable to bind heparin”. In assay [2], the LPS-binding capacity entry was “lose the capacity to bind LPS”.

Turning to “HYRIKPTFRRLKWKYKGKFW [LALF32-51, reference compound]”, the “heparin binding (assay control)” value in assay [1] (unlabeled peptide at a 100× molar excess) is recorded as “binding to heparin”.

Regarding “HYRIKPTFARLKWKYKGKFW [Peptide L-9, alanine-substituted analogue of LALF 32-51]”, the LPS-binding capacity result in assay [2] is listed as “retaining that capacity”.

Turning to “HYRIKPTFRRLKWKYKGKAW [Peptide L-19, alanine-substituted analogue of LALF 32-51]”, in assay [2], the LPS-binding capacity entry is reported as “retaining that capacity”.

For the origin of these results see US8283324B2, “Immunomodulatory and anti-tumour peptides” (Centro de Ingenieria Genetica y Biotecnologia, priority 2006, dated 2012).
